Where “and” joins values, the source holds several entries; their conditions need not be identical. Equal entries are not always repeated.
Tests used:
[1] = target: T1, S. aureus topoisomerase IV (Staphylococcus aureus, UniProt P0C1S7); assay: S. aureus topoisomerase IV gel-based assay; format: biochemical; details: quadruplicates
T1 construct: purchased Inspiralis Ltd., Norwich, UK

Acinetobacter baumannii = assay: MIC, broth microdilution (CLSI); format: cell-based
Protocol: (§1) MICs were determined using a standard serial broth microdilution technique according to the CLSI guidelines. Briefly, bacterial strains were inoculated onto MHBII agar plates and were grown overnight at 37 °C. Next, 3 individual colonies from each strain were inoculated into 1 mL MHBII medium and propagated at 37 °C, 250 rpm overnight. In the cases of Enterococcus and Streptococcus sp., cells were plated to BHI agar plates, and BHI broth was used to determine MICs. […] Following dilutions, each well was seeded with 5×10^4 bacterial cells. All measurements were performed in 3 parallel replicates and to avoid possible edge effects in microwell plates, side rows (A and H) were filled with sterile medium. Following inoculations, plates were covered with lids and wrapped in polyethylene plastic bags to minimize evaporation but allow for O2 transfer. Plates were incubated at 37 °C under continuous shaking at 150 rpm for 18 hours. After incubation, OD600 of each well was measured using a BioTek Synergy 2 microplate reader.

Clostridium difficile = assay: MIC, broth microdilution (CLSI); format: cell-based
Protocol: as §1

Enterococcus faecalis = assay: MIC, broth microdilution (CLSI); format: cell-based
Protocol: as §1

Enterococcus faecium = assay: MIC, broth microdilution (CLSI); format: cell-based
Protocol: as §1

Escherichia coli = assay: MIC, broth microdilution (CLSI); format: cell-based; details: Escherichia coli ATCC 25922
Protocol: as §1

Haemophilus influenzae = assay: MIC, broth microdilution (CLSI); format: cell-based
Protocol: as §1

Helicobacter pylori = assay: MIC, broth microdilution (CLSI); format: cell-based; details: Helicobacter pylori ATCC 43504
Protocol: as §1

Klebsiella pneumoniae = assay: MIC, broth microdilution (CLSI); format: cell-based; details: Klebsiella pneumoniae ATCC 10031
Protocol: as §1

Listeria monocytogenes = assay: MIC, broth microdilution (CLSI); format: cell-based; details: Listeria monocytogenes ATCC 19111
Protocol: as §1

Neisseria gonorrhoeae = assay: MIC, broth microdilution (CLSI); format: cell-based
Protocol: as §1

Pseudomonas aeruginosa = assay: MIC, broth microdilution (CLSI); format: cell-based
Protocol: as §1

Shigella flexneri = assay: MIC, broth microdilution (CLSI); format: cell-based
Protocol: as §1

Staphylococcus aureus = assay: MIC, broth microdilution (CLSI); format: cell-based
Protocol: as §1

Streptococcus pneumoniae = assay: MIC, broth microdilution (CLSI); format: cell-based
Protocol: as §1

Streptococcus pyogenes = assay: MIC, broth microdilution (CLSI); format: cell-based
Protocol: as §1

S. aureus = assay: pH-dependent MIC determination; format: cell-based; details: Staphylococcus aureus
Protocol: as §1

[2] = test system: S. aureus ATCC 700699 VISA; assay: Time-dependent killing; format: cell-based; details: for Time-kill bacterial count: 10xMIC; for Colony numbers: time-kill raw counts, Samples 1-3
Protocol: Time-dependent killing experiments were performed as previously. S. aureus ATCC 700699 VISA cells were inoculated to MHBII agar plates and grown overnight at 37 °C. Next, 3 independent stationer-phase starter cultures were grown at 37 °C, 250 rpm overnight, in 3 × 1 mL MHBII broth. Next, 100-fold diluted cultures were prepared from each in 20 mL fresh MHBII medium and grown at 37 °C, 250 rpm until early exponential phase (OD600 = 0.3–0.4; i.e., 5 × 10^5 cells/mL). […] Cells were treated with antibiotics in Erlenmeyer flasks at 37 °C, 150 rpm for 48 hours. […] Next, 50 μL from each dilution were plated on MHBII agar plates, and plates were incubated overnight at 37 °C to calculate CFU per mL.

T1 sequence (P0C1S7 whole entry): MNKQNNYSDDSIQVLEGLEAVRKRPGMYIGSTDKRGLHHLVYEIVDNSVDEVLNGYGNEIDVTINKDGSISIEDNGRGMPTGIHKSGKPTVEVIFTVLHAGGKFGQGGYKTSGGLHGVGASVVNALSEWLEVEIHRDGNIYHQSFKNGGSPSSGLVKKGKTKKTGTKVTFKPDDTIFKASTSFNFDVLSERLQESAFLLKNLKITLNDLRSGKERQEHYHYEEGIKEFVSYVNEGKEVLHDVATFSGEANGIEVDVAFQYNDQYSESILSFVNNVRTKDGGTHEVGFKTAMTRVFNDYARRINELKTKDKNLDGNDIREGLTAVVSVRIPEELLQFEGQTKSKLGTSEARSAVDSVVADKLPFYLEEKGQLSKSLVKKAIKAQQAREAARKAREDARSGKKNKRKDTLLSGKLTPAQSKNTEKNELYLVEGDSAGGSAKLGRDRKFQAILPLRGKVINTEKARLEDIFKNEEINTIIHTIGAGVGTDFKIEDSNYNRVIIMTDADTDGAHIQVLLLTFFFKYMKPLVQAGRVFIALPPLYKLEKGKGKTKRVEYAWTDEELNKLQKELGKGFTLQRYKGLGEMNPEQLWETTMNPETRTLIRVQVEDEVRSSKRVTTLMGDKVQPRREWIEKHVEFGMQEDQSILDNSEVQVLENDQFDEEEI
T1 sequence (P0C1U9 whole entry, further chain): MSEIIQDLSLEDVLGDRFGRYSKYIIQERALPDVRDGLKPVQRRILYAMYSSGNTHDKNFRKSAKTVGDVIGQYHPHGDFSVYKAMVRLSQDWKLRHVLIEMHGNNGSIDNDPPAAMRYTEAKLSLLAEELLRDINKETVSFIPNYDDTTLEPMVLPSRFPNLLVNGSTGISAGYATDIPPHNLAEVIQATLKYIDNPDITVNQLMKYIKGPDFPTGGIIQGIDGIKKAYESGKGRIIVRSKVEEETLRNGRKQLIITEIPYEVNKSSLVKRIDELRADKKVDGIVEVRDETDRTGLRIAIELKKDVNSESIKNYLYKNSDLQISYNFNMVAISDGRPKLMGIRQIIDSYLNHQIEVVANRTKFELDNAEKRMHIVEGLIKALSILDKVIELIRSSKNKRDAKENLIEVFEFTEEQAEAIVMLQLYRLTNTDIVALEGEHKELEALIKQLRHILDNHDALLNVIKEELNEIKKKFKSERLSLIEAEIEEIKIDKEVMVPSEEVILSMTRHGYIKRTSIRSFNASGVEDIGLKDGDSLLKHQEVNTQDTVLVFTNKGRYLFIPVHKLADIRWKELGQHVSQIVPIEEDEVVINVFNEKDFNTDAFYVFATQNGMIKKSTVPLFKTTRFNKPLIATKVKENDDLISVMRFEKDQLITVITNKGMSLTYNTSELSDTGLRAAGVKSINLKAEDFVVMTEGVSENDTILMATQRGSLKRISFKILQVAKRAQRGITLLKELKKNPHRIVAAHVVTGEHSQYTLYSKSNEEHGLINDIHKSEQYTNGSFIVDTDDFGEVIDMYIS

For `Cc1[nH]c(C(=O)Nc2nc3ccc(C(=O)O)cc3s2)c(Cl)c1Cl` [ULD1], the IC50 [1] was 9.3 ± 2.2 nM, the MIC (Acinetobacter baumannii; ATCC19606, Acinetobacter baumannii ATCC 19606) was 2 µg/mL and the MIC (Acinetobacter baumannii; Acinetobacter baumannii ATCC 17978) was 4 µg/mL. The MIC (Acinetobacter baumannii; Acinetobacter baumannii ATCC 19606) was 2 µg/mL, the MIC (Clostridium difficile; Clostridioides difficile, BAA1875) was at most 0.0312 µg/mL and the MIC (Clostridium difficile; Clostridium difficile BAA-1875) was under 0.0312 µg/mL. The MIC (Enterococcus faecalis; Enterococcus faecalis ATCC 29212) was 0.125 µg/mL, the MIC (Enterococcus faecalis; Enterococcus faecalis ATCC 51575, VRE (VanB+)) was 0.0625 µg/mL and the MIC (Enterococcus faecium; Enterococcus faecium ATCC 19434) was 2 µg/mL. It also gave an MIC (Enterococcus faecium; Enterococcus faecium ATCC 700221, VRE (VanA+)) of 0.0625 µg/mL, an MIC (Enterococcus faecium; Enterococcus faecium BAA-2320, VRE (VanA+)) of 0.25 µg/mL and an MIC (Enterococcus faecium; Enterococcus faecium CCUG 56858, VRE (VanB+)) of 2 µg/mL. For the same compound, the MIC (Escherichia coli) was 4 µg/mL, the MIC (Haemophilus influenzae; ATCC49247, Haemophilus influenzae ATCC 49247) was at most 0.0312 µg/mL and the MIC (Haemophilus influenzae; Haemophilus influenzae ATCC 35056) was 0.125 µg/mL. It also gave an MIC (Haemophilus influenzae; Haemophilus influenzae ATCC 49247) of under 0.0312 µg/mL, an MIC (Helicobacter pylori) of 4 µg/mL and an MIC (Klebsiella pneumoniae; ATCC10031) of 1 µg/mL. The MIC (Klebsiella pneumoniae) was 1 µg/mL, the MIC (Listeria monocytogenes; ATCC19111) was 0.125 µg/mL and the MIC (Listeria monocytogenes) was 0.125 µg/mL. For the same compound, the MIC (Neisseria gonorrhoeae; CCUG57598, Neisseria gonorrhoeae CCUG 57598) was at most 0.0312 µg/mL, the MIC (Neisseria gonorrhoeae; Neisseria gonorrhoeae ATCC 700825) was under 0.0312 µg/mL and the MIC (Neisseria gonorrhoeae; Neisseria gonorrhoeae CCUG 57598) was under 0.0312 µg/mL. The MIC (Pseudomonas aeruginosa; ATCC27853, Pseudomonas aeruginosa ATCC 27853) was 8 µg/mL, the MIC (Pseudomonas aeruginosa; Pseudomonas aeruginosa ATCC 27853) was 8 µg/mL and the MIC (Pseudomonas aeruginosa; Pseudomonas aeruginosa B3-1811, Ciprofloxacin-R, Cephalosporin-R) was over 64 µg/mL. It also gave an MIC (Shigella flexneri; Shigella flexneri 668) of 16 µg/mL, an MIC (Shigella flexneri; Shigella flexneri HNCMB 20018) of 8 µg/mL and an MIC (Staphylococcus aureus; Staphylococcus aureus (strain not given), MRSA (SCCmec type IV), Oxacillin-R, VSSA, Cephalosporin-R, Erythromycin-R) of 1 µg/mL. For the same compound, the MIC (Staphylococcus aureus; Staphylococcus aureus ATCC 29213) was 1 µg/mL, the MIC (Staphylococcus aureus; Staphylococcus aureus ATCC 33594, MSSA, VSSA) was 0.5 µg/mL and the MIC (Staphylococcus aureus; Staphylococcus aureus ATCC 43300, MRSA) was 0.125 µg/mL. It also gave an MIC (Staphylococcus aureus; Staphylococcus aureus ATCC 700699 (Mu50, NRS1), MRSA, VISA) of 0.0625 µg/mL, an MIC (Staphylococcus aureus; Staphylococcus aureus CDC AR-BANK 0218, MRSA, VISA) of 1 µg/mL and an MIC (Staphylococcus aureus; Staphylococcus aureus ECL 2963646, MRSA, VRSA) of 0.125 µg/mL. For the same compound, the MIC (Staphylococcus aureus; Staphylococcus aureus NRS271, MRSA, Linezolid-R) was 1 µg/mL, the MIC (Staphylococcus aureus; Staphylococcus aureus USA300, ATCC BAA-1717, MRSA) was 0.5 µg/mL and the MIC (Staphylococcus aureus; Staphylococcus aureus USA400, BAA-1707, NRS123, MRSA) was 0.5 µg/mL. It also gave an MIC (Staphylococcus aureus; Staphylococcus aureus, ATCC 700699 / MRSA / NRS 1 / VISA, S. aureus ATCC 700699 (Mu50, NRS1), MRSA, VISA) of 0.0625 µg/mL, an MIC (Staphylococcus aureus; Staphylococcus aureus, S. aureus ECL 2963646, MRSA, VRSA) of 0.125 µg/mL and an MIC (Streptococcus pneumoniae; Streptococcus pneumoniae ATCC 49619) of 0.25 µg/mL. The MIC (Streptococcus pneumoniae; Streptococcus pneumoniae ATCC 51916) was 0.5 µg/mL, the MIC (Streptococcus pneumoniae; Streptococcus pneumoniae ATCC 700673) was 0.5 µg/mL and the MIC (Streptococcus pyogenes; Streptococcus pyogenes ATCC 14289) was 0.25 µg/mL. For the same compound, the MIC (Streptococcus pyogenes; Streptococcus pyogenes ATCC 19615) was 0.125 µg/mL, the MIC (S. aureus; S. aureus ATCC 43300 (MRSA), pH 5.5) was 0.004 µg/mL and the MIC (S. aureus; S. aureus ATCC 43300 (MRSA), pH 7.3) was 0.1 µg/mL. The MIC (S. aureus; S. aureus ATCC 700699 (VISA), pH 5.5) was 0.00025 µg/mL, the MIC (S. aureus; S. aureus ATCC 700699 (VISA), pH 7.3) was 0.04 µg/mL and the Time-kill bacterial count ([2]; time 0 hour) was 2.80E+05. It also gave a Time-kill bacterial count ([2]; time 3 hour) of 9.80E+04, a Time-kill bacterial count ([2]; time 6 hour) of 6.30E+04 and a Time-kill bacterial count ([2]; time 12 hour) of 4.90E+03. It also gave a Time-kill bacterial count ([2]; time 18 hour) of 1.70E+03, a Time-kill bacterial count ([2]; time 24 hour) of 8.50E+02 and a Time-kill bacterial count ([2]; time 48 hour) of 1.60E+02. For the same compound, the “cell killing (bactericidal) activity” value ([2]; 10× MIC, S. aureus ATCC 700699 (VISA), in words) was “exceed that of fusidic acid”, the Colony numbers ([2]; time 0 h, Dilution 100) was 145 and 132 and 137 and the Colony numbers ([2]; time 3 h, Dilution 100) was 54 and 53 and 40. For the same compound, the Colony numbers ([2]; time 6 h, Dilution 100) was 38 and 20 and 36, the Colony numbers ([2]; time 12 h, Dilution 10) was 20 and 23 and 31 and the Colony numbers ([2]; time 18 h, Dilution 1) was 83 and 63 and 113. For the same compound, the Colony numbers ([2]; time 24 h, Dilution 0.5) was 65 and 80 and 110.

Reference: publication PMC7561186, “Rational design of balanced dual-targeting antibiotics with limited resistance” (PLoS Biology, 2020)
